The test system of test [1] is cultured human mast cells (CHMC). Briefly: CHMC low cell density IgE activation: tryptase assay. The format is cell-based. The conditions noted are these: low cell density CHMC, IgE activation, tryptase. The procedure, abridged: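 Anti-IgE-driven degranulation of cultured human mast cells at low density, 1000–1500 cells/well, was induced over 30 min at 37 °C. It was scored by supernatant tryptase activity on a fluorogenic substrate.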

The test system is the same in test [2]. Kind of test: CHMC low cell density ionomycin activation: tryptase assay. The format is cell-based. As to conditions: low cell density CHMC, tryptase, 3 pt, read-out: LD Tryptase, CHMC, Iono, 3 pt.
Where [3] appears, read: Homo sapiens, Mast cell, 3 pt, read-out: LD Tryptase, CHMC, IgE, 3 pt.
The mark [4] stands for this setting: Homo sapiens, Mast cell, 8 pt, read-out: LD Tryptase, CHMC, IgE, 8 pt.
Where [5] appears, read: 3 pt, read-out: LD Tryptase, CHMC, IgE, 3 pt.
Where [6] appears, read: 8 pt, read-out: LD Tryptase, CHMC, IgE, 8 pt.

Where only a bound is given, the exact number is not on record here.

Take `COc1cc(Nc2ncc(F)c(N(C)c3ccc4c(c3)N(C)C(=O)C(C)(C)O4)n2)cc(OC)c1` [Compound 393]: the IC50 was below 10 µM in test [1] (setting [3]) and below 10 µM in test [2] (Homo sapiens, Mast cell).
With `COC(=O)c1cc2cc(Nc3ncc(F)c(N(C)c4ccc5c(c4)OCCO5)n3)ccc2o1` [Compound 395], the IC50 in test [1] (setting [3]) was below 10 µM; in test [1] (setting [4]), below 10 µM; in test [2] (Homo sapiens, Mast cell) it was below 10 µM.
Regarding `Cc1cc(C)cc(Nc2ncc(F)c(Nc3ccc4c(c3)N(C)C(=O)C(C)(C)O4)n2)c1` [Compound 396], the IC50 in test [1] (setting [3]) was below 10 µM; in test [1] (setting [4]) it was below 10 µM; in test [2] (Homo sapiens, Mast cell), below 10 µM.
For the compound `COc1cc(Nc2ncc(F)c(Nc3ccc4c(c3)N(C)C(=O)C(C)(C)O4)n2)cc(OC)c1` [Compound 397], the IC50 was below 10 µM in test [1] (setting [3]); below 10 µM in test [1] (setting [4]); below 10 µM in test [2] (Homo sapiens, Mast cell).
In the case of `CNC(=O)COc1cccc(Nc2ncc(F)c(N(C)c3cc(OC)cc(OC)c3)n2)c1` [Compound 398, N4-(3,5-Dimethoxyphenyl)-5-fluoro-N4-methyl-N2-[3-(N-methylamino)carbonylmethyleneoxyphenyl]-2,4-pyrimidinediamine], the IC50 in test [1] (setting [5]) is below 10 µM; in test [2] it was above 10 µM.
For the compound `COc1cc(Nc2ncc(F)c(N(C)c3cc(OC)cc(OC)c3)n2)cc(OC)c1` [Compound 400], the IC50 in test [1] (setting [3]) is below 10 µM; in test [2] (Homo sapiens, Mast cell) it was above 10 µM.
The corresponding values for `COC(=O)c1cc2cc(Nc3ncc(F)c(N(C)c4cc(OC)cc(OC)c4)n3)ccc2o1` [Compound 401] are below 10 µM and below 10 µM.
Regarding `COc1cc(OC)cc(N(C)c2nc(Nc3ccc(OC)c(Cl)c3)ncc2F)c1` [Compound 404, N2-(3-Chloro-4-methoxyphenyl)-N4-(3,5-dimethoxyphenyl)-5-fluoro-N4-methyl-2,4-pyrimidinediamine], the IC50 in test [1] (setting [3]) is above 10 µM; in test [2] (Homo sapiens, Mast cell), above 10 µM.
Turning to `COc1cc(OC)cc(N(C)c2nc(Nc3ccc(Cl)c(OC)c3)ncc2F)c1` [Compound 405], the IC50 in test [1] (setting [3]) was below 10 µM; in test [2] (Homo sapiens, Mast cell) it was above 10 µM.
As for `CNC(=O)c1cc2cccc(Nc3ncc(F)c(N(C)c4cc(OC)cc(OC)c4)n3)c2[nH]1` [Compound 406, N4-(3,5-Dimethoxyphenyl)-5-fluoro-N4-methyl-N2-[2-(N-methylamino)carbonylindol-7-yl]-2,4-pyrimidinediamine], the IC50 in test [1] (setting [3]) is below 10 µM; in test [2] (Homo sapiens, Mast cell), above 10 µM.
As for `COc1cc(Nc2ncc(F)c(Nc3ccc(OC(C)(C)C(=O)O)c(Cl)c3)n2)cc(OC)c1` [Compound 409, N4-[3-Chloro-4-(hydroxycarbonyl-1,1-dimethylmethyleneoxy)phenyl]-N2-(3,5-dimethoxyphenyl)-5-fluoro-2,4-pyrimidinediamine], the IC50 in test [1] (setting [5]) is below 10 µM; in test [1] (setting [6]) it was below 10 µM; in test [2], above 10 µM.
`CCOC(=O)C(C)(C)Oc1ccc(Nc2nc(Nc3ccc(OC)c(Cl)c3)ncc2F)cc1Cl` [Compound 410, N4-[3-Chloro-4-(ethoxycarbonyl-1,1-dimethylmethyleneoxy)phenyl]-N2-(3-chloro-4-methoxyphenyl)-5-fluoro-2,4-pyrimidinediamine]: the IC50 in test [1] (setting [5]), in test [1] (setting [6]) and in test [2] was below 10 µM in each case.
Consider `CN(c1ccc2c(c1)OCCO2)c1nc(Nc2cccc(-c3cnco3)c2)ncc1F` [Compound 411], for which the IC50 in test [1] (setting [3]) is below 10 µM; in test [1] (setting [4]) it was below 10 µM; in test [2] (Homo sapiens, Mast cell), above 10 µM.
On to `CN(c1ccc2c(c1)OCCO2)c1nc(Nc2cccc(-c3ncco3)c2)ncc1F` [Compound 412], for which the IC50 in test [1] (setting [3]) is below 10 µM; in test [2] (Homo sapiens, Mast cell) it was below 10 µM.
Take `COc1ccc(Nc2nc(Nc3cc(C)cc(C)c3)ncc2F)cc1OC` [Compound 413]: the IC50 in test [1] (setting [3]) is below 10 µM; in test [1] (setting [4]), below 10 µM; in test [2] (Homo sapiens, Mast cell), above 10 µM.
For `COc1cc(Nc2ncc(F)c(Nc3ccc(OC)c(OC)c3)n2)cc(OC)c1` [Compound 414, N2-(3,5-Dimethoxyphenyl)-N4-(3,4-dimethoxyphenyl)-5-fluoro-2,4-pyrimidinediamine], the IC50 in test [1] (setting [3]) was below 10 µM; in test [1] (setting [4]), below 10 µM; in test [2] (Homo sapiens, Mast cell) it was above 10 µM.
As for `CCOC(=O)c1cc2cccc(Nc3ncc(F)c(Nc4ccc(OC)c(OC)c4)n3)c2[nH]1` [Compound 415, N4-(3,4-Dimethoxyphenyl)-N2-[2-(ethoxycarbonyl)indol-7-yl]-5-fluoro-2,4-pyrimidinediamine], the IC50 in test [1] (setting [3]) is below 10 µM; in test [1] (setting [4]) it was below 10 µM; in test [2] (Homo sapiens, Mast cell) it was above 10 µM.
With `CN(c1ccc2c(c1)OCCO2)c1nc(Nc2ccc(-c3ncco3)cc2)ncc1F` [Compound 416], the IC50 is below 10 µM in test [1] (setting [3]) and above 10 µM in test [2] (Homo sapiens, Mast cell).
With `COC(=O)CN(c1ccc2c(c1)OCCO2)c1nc(Cl)ncc1F` [Compound 418], the IC50 in test [1] (setting [3]) is above 10 µM; in test [2] (Homo sapiens, Mast cell), above 10 µM.
Turning to `COc1ccc(Nc2nc(Nc3cccc(-c4cnco4)c3)ncc2F)cc1OC` [Compound 419, N4-(3,4-Dimethoxyphenyl)-5-fluoro-N2-[3-(oxazol-5-yl)phenyl]-2,4-pyrimidinediamine], the IC50 in test [1] (setting [3]) was below 10 µM; in test [1] (setting [4]), below 10 µM; in test [2] (Homo sapiens, Mast cell) it was above 10 µM.
On to `COC(=O)CN(c1ccc2c(c1)OCCO2)c1nc(Nc2ccc3cc[nH]c3c2)ncc1F` [Compound 420, N4-(3,4-Ethylenedioxyphenyl)-5-fluoro-N2-(indol-6-yl)-N4-(methoxycarbonylmethyl)-2,4-pyrimidinediamine], for which the IC50 was below 10 µM in test [1] (setting [3]) and above 10 µM in test [2] (Homo sapiens, Mast cell).
Regarding `CNC(=O)c1cc2cccc(Nc3ncc(F)c(Nc4ccc(OC)c(OC)c4)n3)c2[nH]1` [Compound 421, N4-(3,4-Dimethoxyphenyl)-5-fluoro-N2-[2-(N-methylaminocarbonyl)indol-7-yl]-2,4-pyrimidinediamine], the IC50 in test [1] (setting [3]) was below 10 µM; in test [2] (Homo sapiens, Mast cell), above 10 µM.
Consider `COc1ccc(Nc2nc(Nc3ccc(-c4cnco4)cc3)ncc2F)cc1OC` [Compound 422, N4-(3,4-Dimethoxyphenyl)-5-fluoro-N2-[4-(oxazol-5-yl)phenyl]-2,4-pyrimidinediamine], for which the IC50 in test [1] (setting [3]) was below 10 µM; in test [1] (setting [4]), below 10 µM; in test [2] (Homo sapiens, Mast cell), above 10 µM.
With `COc1ccc(Nc2nc(Nc3ccc(-c4ncco4)cc3)ncc2F)cc1OC` [Compound 424], the IC50 in test [1] (setting [3]) was below 10 µM; in test [2] (Homo sapiens, Mast cell), above 10 µM.
Take `COc1ccc(Nc2ncc(F)c(Nc3ccc(OC)c(OC)c3)n2)cc1Cl` [Compound 425, N2-(3-Chloro-4-methoxyphenyl)-N4-(3,4-dimethoxyphenyl)-5-fluoro-2,4-pyrimidinediamine]: the IC50 is below 10 µM in test [1] (setting [3]); below 10 µM in test [1] (setting [4]); above 10 µM in test [2] (Homo sapiens, Mast cell).
In the case of `CC(=O)N1CCN(c2cccc(Nc3ncc(F)c(Nc4ccc5c(c4)OCCO5)n3)c2)CC1` [Compound 426], the IC50 was below 10 µM in test [1] (setting [3]); below 10 µM in test [1] (setting [4]); above 10 µM in test [2] (Homo sapiens, Mast cell).
With `CC(=O)N1CCN(c2ccc(Nc3ncc(F)c(Nc4ccc5c(c4)OCCO5)n3)cc2)CC1` [Compound 427, N2-[4-(4-Acetylpiperazino)phenyl]-N4-(3,4-ethylenedioxyphenyl)-5-fluoro-2,4-pyrimidinediamine], the IC50 is below 10 µM in test [1] (setting [3]); below 10 µM in test [1] (setting [4]); above 10 µM in test [2] (Homo sapiens, Mast cell).
On to `COc1cc(Nc2nc(Nc3cccc(N4CCN(C(C)=O)CC4)c3)ncc2F)cc(OC)c1` [Compound 428, N2-[3-(4-Acetylpiperazino)phenyl]-N4-(3,5-dimethoxyphenyl)-5-fluoro-2,4-pyrimidinediamine], for which the IC50 in test [1] (setting [3]) was below 10 µM; in test [2] (Homo sapiens, Mast cell) it was above 10 µM.
Take `COc1ccc(Nc2nc(Nc3cccc(N4CCN(C(C)=O)CC4)c3)ncc2F)cc1OC` [Compound 429, N2-[3-(4-Acetylpiperazino)phenyl]-N4-(3,4-dimethoxyphenyl)-5-fluoro-2,4-pyrimidinediamine]: the IC50 in test [1] (setting [3]) is below 10 µM; in test [2] (Homo sapiens, Mast cell), above 10 µM.
In the case of `COc1ccc(Nc2nc(Nc3ccc(N4CCN(C(C)=O)CC4)cc3)ncc2F)cc1OC` [Compound 430, N2-[4-(4-Acetylpiperazino)phenyl]-N4-(3,4-dimethoxyphenyl)-5-fluoro-2,4-pyrimidinediamine], the IC50 is below 10 µM in test [1] (setting [3]) and above 10 µM in test [2] (Homo sapiens, Mast cell).
With `CC(=O)N1CCN(c2cccc(Nc3ncc(F)c(Nc4ccc5c(c4)OC(F)(F)C(F)(F)O5)n3)c2)CC1` [Compound 431], the IC50 was below 10 µM in test [1] (setting [5]), below 10 µM in test [1] (setting [6]) and above 10 µM in test [2].
Turning to `CC(=O)N1CCN(c2ccc(Nc3ncc(F)c(Nc4ccc5c(c4)OC(F)(F)C(F)(F)O5)n3)cc2)CC1` [Compound 432], the IC50 is below 10 µM in test [1] (setting [5]) and above 10 µM in test [2].
For `COc1ccc(N(C)c2nc(Nc3cc(C)cc(C)c3)ncc2F)cc1OC` [Compound 433], the IC50 was below 10 µM in test [1] (setting [3]) and above 10 µM in test [2] (Homo sapiens, Mast cell).
For `COc1cc(Nc2ncc(F)c(N(C)c3ccc(OC)c(OC)c3)n2)cc(OC)c1` [Compound 434], in that order: below 10 µM and above 10 µM.
The corresponding values for `CCOC(=O)c1cc2cccc(Nc3ncc(F)c(N(C)c4ccc(OC)c(OC)c4)n3)c2[nH]1` [Compound 435, N4-(3,4-Dimethoxyphenyl)-N2-[2-(ethoxycarbonyl)indol-7-yl]-5-fluoro-N4-methyl-2,4-pyrimidinediamine] are below 10 µM and above 10 µM.

Source of the values: US20220073536A1 (Rigel Pharmaceuticals, Inc., priority 2003, published 2022).
